Data as given in patent publication US8383646B2, “Therapeutic ((bicylicheteroaryl)imidazolyl) methylheteroaryl compounds” (Allergan, Inc., priority 2007, dated 2013).
pEC50: −log10 of the molar value.

Legend:
Format in all cases: cell-based
alpha2A receptor = target: T1, alpha2A receptor (Homo sapiens, UniProt P08913); assay: RSAT assay, alpha2A receptor; settings: for Alpha 2A intrinsic activity (efficacy): ratio of maximal effect to that of standard full agonist brimonidine (UK14304), value in parentheses; for pEC50: transfected NIH-3T3 cells with Gq/i5, ND = not determinable at concentrations less than 10 micromolar, read-out: Alpha 2A potency (EC50)
T1 construct: expressed in transfected cells; host or cells: NIH-3T3 cells
T1 sequence (P08913 1-465): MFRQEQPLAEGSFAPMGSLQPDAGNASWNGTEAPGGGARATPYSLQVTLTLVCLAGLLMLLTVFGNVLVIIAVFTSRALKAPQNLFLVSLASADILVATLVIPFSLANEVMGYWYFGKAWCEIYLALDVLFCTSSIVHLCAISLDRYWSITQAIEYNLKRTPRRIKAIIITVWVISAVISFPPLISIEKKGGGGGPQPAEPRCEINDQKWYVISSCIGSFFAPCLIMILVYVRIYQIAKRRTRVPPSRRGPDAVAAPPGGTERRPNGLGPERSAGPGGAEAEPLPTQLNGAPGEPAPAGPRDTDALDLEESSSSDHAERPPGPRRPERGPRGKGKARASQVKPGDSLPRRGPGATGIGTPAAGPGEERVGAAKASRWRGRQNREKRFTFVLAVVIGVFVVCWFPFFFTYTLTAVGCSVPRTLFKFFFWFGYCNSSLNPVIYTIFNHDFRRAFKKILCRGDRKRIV
Procedure: (§1) Receptor Selection and Amplification Technology (RSAT) Assay
(§2) The RSAT assay measures a receptor-mediated loss of contact inhibition that results in selective proliferation of receptor-containing cells in a mixed population of confluent cells. The increase in cell number is assessed with an appropriate transfected marker gene such as β-galactosidase, the activity of which can be easily measured in a 96-well format. Receptors that activate the G protein, Gq, elicit this response. Alpha2 receptors, which normally couple to Gi, activate the RSAT response when coexpressed with a hybrid Gq protein that has a Gi receptor recognition domain, called Gq/i5.
(§3) NIH-3T3 cells are plated at a density of 2×10^6 cells in 15 cm dishes and maintained in Dulbecco's modified Eagle's medium supplemented with 10% calf serum. One day later, cells are cotransfected by calcium phosphate precipitation with mammalian expression plasmids encoding p-SV-β-galactosidase (5-10 μg), receptor (1-2 μg) and G protein (1-2 μg). 40 μg salmon sperm DNA may also be included in the transfection mixture. Fresh media is added on the following day and 1-2 days later, cells are harvested and frozen in 50 assay aliquots. Cells are thawed and 100 μl added to 100 μl aliquots of various concentrations of drugs in triplicate in 96-well dishes. Incubations continue 72-96 hr at 37° C. After washing with phosphate-buffered saline, β-galactosidase enzyme activity is determined by adding 200 μl of the chromogenic substrate (consisting of 3.5 mM o-nitrophenyl-β-D-galactopyranoside and 0.5% nonidet P-40 in phosphate buffered saline), incubating overnight at 30° C. and measuring optical density at 420 nm. The absorbance is a measure of enzyme activity, which depends on cell number and reflects a receptor-mediated cell proliferation. The efficacy or intrinsic activity is calculated as a ratio of the maximal effect of the drug to the maximal effect of a standard full agonist for each receptor subtype. Brimonidine, also called UK14304, the chemical structure of which is shown below, is used as the standard agonist for the alpha2A, alpha2B and alpha2C receptors. The EC50 is the concentration at which the drug effect is half of its maximal effect.
(§4) The results of the RSAT assay with several exemplary compounds of the invention are disclosed in Table 1 above together with the chemical formulas of these exemplary compounds. EC50 values are nanomolar. ND stands for “not determinable” at concentrations less than 10 micromolar. IA stands for “intrinsic activity.”

alpha2B receptor = target: T2, alpha2B receptor (Homo sapiens, UniProt P18089); assay: RSAT assay, alpha2B receptor; settings: for Alpha 2B intrinsic activity (efficacy): ratio of maximal effect to that of standard full agonist brimonidine (UK14304), value in parentheses; for pEC50: transfected NIH-3T3 cells with Gq/i5, ND = not determinable at concentrations less than 10 micromolar, read-out: Alpha 2B potency (EC50)
T2 construct: expressed in transfected cells; host or cells: NIH-3T3 cells
T2 sequence (P18089 1-450): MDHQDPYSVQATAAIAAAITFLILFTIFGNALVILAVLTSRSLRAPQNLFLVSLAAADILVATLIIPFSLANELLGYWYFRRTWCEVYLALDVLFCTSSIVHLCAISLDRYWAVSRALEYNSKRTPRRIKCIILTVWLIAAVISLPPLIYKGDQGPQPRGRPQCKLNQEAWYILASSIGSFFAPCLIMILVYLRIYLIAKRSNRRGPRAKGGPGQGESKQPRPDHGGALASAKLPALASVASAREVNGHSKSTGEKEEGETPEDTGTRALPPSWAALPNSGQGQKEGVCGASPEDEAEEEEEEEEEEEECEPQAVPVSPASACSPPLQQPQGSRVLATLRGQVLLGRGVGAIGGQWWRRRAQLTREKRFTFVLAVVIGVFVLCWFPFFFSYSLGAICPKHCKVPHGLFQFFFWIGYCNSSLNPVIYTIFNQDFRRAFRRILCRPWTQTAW
Procedure: as §1, §2, §3, §4

alpha2C receptor = target: T3, alpha2C receptor (Homo sapiens, UniProt P18825); assay: RSAT assay, alpha2C receptor; settings: for Alpha 2C intrinsic activity (efficacy): ratio of maximal effect to that of standard full agonist brimonidine (UK14304), value in parentheses; for pEC50: transfected NIH-3T3 cells with Gq/i5, ND = not determinable at concentrations less than 10 micromolar, read-out: Alpha 2C potency (EC50)
T3 construct: expressed in transfected cells; host or cells: NIH-3T3 cells
T3 sequence (P18825 1-462): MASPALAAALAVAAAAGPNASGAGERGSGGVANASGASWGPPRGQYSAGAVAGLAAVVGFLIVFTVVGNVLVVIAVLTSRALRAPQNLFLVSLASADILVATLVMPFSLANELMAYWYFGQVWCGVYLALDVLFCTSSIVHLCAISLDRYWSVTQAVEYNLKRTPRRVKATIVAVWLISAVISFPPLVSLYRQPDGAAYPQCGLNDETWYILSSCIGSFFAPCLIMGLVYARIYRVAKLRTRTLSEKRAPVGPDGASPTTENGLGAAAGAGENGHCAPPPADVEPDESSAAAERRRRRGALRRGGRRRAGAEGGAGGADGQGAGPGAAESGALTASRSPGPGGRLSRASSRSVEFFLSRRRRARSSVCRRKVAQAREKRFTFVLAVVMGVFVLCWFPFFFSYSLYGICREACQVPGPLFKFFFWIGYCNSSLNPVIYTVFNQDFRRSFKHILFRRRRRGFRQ
Procedure: as §1, §2, §3, §4

SMILES | Alpha 2A intrinsic activity (efficacy) (alpha2A receptor) | pEC50 (alpha2A receptor) | Alpha 2B intrinsic activity (efficacy) (alpha2B receptor) | pEC50 (alpha2B receptor) | Alpha 2C intrinsic activity (efficacy) (alpha2C receptor) | pEC50 (alpha2C receptor)
c1cncc(C(c2cnc[nH]2)c2cccc3c2OCC3)c1 (stereo not shown) | 0.46 | 6.37 | 1.13 | 8.00 | 1.12 | 6.80
c1cncc(C(c2cnc[nH]2)c2cccc3ncccc23)c1 (stereo not shown) | 0.12 | < 5.00 | 0.90 | 6.64 | 0.33 | < 5.00
c1ccc(C(c2cnc[nH]2)c2cccc3cccnc23)nc1 (stereo not shown) | 0.15 | < 5.00 | 1.00 | 7.66 | 0.60 | 6.56
c1ccc(C(c2cnc[nH]2)c2cccc3ncccc23)nc1 (stereo not shown) | 0.13 | < 5.00 | 0.45 | 6.46 | 0.22 | < 5.00
c1cncc(C(c2cnc[nH]2)c2cccc3cccnc23)c1 (stereo not shown) | 0.50 | 6.24 | 1.29 | 8.67 | 1.16 | 6.91
c1ccc(C(c2cnc[nH]2)c2cccc3c2OCC3)nc1 (stereo not shown) | 0.23 | – | 0.87 | 8.04 | 0.86 | 6.80
c1cc(C(c2ccncc2)c2cnc[nH]2)c2cccnc2c1 (stereo not shown) | – | < 5.00 | 0.65 | 6.11 | 0.18 | < 5.00
